In the experiment the target is human CB1 receptor (hCB1) (Homo sapiens, UniProt P21554). Nature of the experiment: cell-based. It is filed as cell-based. The note with it: for EC50: groups >100 nM-10 μM and >10 μM, cAMP, CHO-K1 hCB1, read-out: EC50 HCB1. How it is done:
The ability of compounds to act as agonists or inverse agonists at human CB2 and CB1 receptors (hCB2, hCB1, respectively) and at the rat CB2 receptor (rCB2) was determined by measuring changes in intracellular cAMP levels. Chinese Hamster Ovary (CHO-K1) cell lines stably expressing hCB2 (Genebank: X74328) or hCB1 (Genebank: X54937) were purchased from Euroscreen (Gosselies, Belgium). The rat CB2 receptor was expressed from genomic DNA (provided by M. Abood, California Pacific Medical Center) in CHO-K1 cells from expression plasmid vector, pcDNA3.1.
Cell lines were grown in suspension in EX-CELL 302 CHO Serum-free medium (Sigma, cat #14324C) supplemented with 1% Fetal Bovine Serum, glutamine and non-essential amino-acids under 0.4 mg/mL G418 selection.
Receptor mediated responses were determined by measuring changes in intracellular cAMP using LANCE cAMP detection kit (cat #AD0264, Perkin Elmer, Wellesley, Mass.) based on time-resolved fluorescence resonance energy transfer (TR-FRET). Changes in cAMP were determined in cells pre-incubated with IBMX (isobutyl methylxanthine) and prestimulated with NKH-477 (a water soluble forskolin derivative, cat #1603, Tocris, Ellisville, Mo.) to increase basal cAMP levels as detailed below.
On the day of the experiment, cells were spun at low speed for 5 min at room temperature. The supernatant was removed and cells were resuspended in stimulation buffer (Hanks Buffered Salt Solution/5 mM HEPES, containing 0.5 mM IBMX (cat #17018, Sigma) and 0.02% BSA (Perkin-Elmer, cat #CR84-100)). Cell clumps were removed by filtering through cell strainer 40 μm (BD Falcon, Discovery Labware, Bedford, Mass.) and diluted to 2×10^5 cells/mL. Antibody supplied with the LANCE cAMP immunoassay kit was then added according to the manufacturer's instructions. An aliquot of cells was taken for un-induced controls. To the remaining cells was added NKH-477 (a water soluble forskolin derivative, Tocris cat #1603) to a final concentration of 2-8 μM. Cells were then incubated for 30 min at room temperature prior to adding to Proxiplates containing test compounds (final DMSO concentration was less than 0.5%) with a Multidrop bulk dispenser, followed by a sixty minute incubation at room temperature. The response was stopped by addition of the detection mix supplied with the LANCE kit. The reagents were allowed to equilibrate for three hours prior to reading on an Envision multi-mode detector (Perkin-Elmer). TR-FRET was measured using a 330-380 nm excitation filter, a 665 nm emission filter, dichroic mirror 380 nm and Z=1 mm. Cyclic AMP concentrations in each well were back-calculated from a cAMP standard curve run concurrently during each assay. Each plate contained 16 wells of forskolin stimulated cells and 16 wells of forskolin plus CP55,940-treated cells. Cells were treated with 1 μM CP55,940 (Tocris cat. #0949). Concentrations of cAMP were expressed as a percent of the difference of these two groups of wells. Concentration-response data including EC50 (the concentration of compound producing 50% of the maximal response) and intrinsic activity (the percent maximal activation compared to full activation by CP55,940) were determined using a four-parameter non-linear regression algorithm (Xlfit equation 251, IDBS).

pEC50: −log10 of the molar value. Read-outs that look alike come from different tables or passages of the source.

human CB1 receptor (hCB1), sequence (P21554 whole entry): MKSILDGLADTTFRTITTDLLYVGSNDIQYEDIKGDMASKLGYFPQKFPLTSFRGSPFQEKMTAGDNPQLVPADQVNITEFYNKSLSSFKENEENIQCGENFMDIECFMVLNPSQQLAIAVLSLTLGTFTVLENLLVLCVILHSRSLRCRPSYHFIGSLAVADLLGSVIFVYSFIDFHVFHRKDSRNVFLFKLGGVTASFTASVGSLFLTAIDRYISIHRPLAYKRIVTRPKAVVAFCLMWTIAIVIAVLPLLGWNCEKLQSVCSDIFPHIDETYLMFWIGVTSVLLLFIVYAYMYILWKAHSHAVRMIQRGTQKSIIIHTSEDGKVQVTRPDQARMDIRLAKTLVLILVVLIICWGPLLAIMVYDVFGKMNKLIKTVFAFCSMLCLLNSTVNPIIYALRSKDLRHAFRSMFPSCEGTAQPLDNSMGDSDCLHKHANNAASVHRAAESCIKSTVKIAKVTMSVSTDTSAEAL

As a reminder, the pEC50 is the EC50 on a negative log10 scale, so that one unit is a factor of ten. Low values mean a high EC50, high ones a low EC50. In turn, `CNC(=O)[C@@H](NC(=O)c1nc(-c2ccccc2)n2c1CN(S(=O)(=O)c1ccc(C#N)cc1)CC2)C(C)(C)C` [Compound 108, (S)-7-(4-cyanophenylsulfonyl)-N-(3,3-dimethyl-1-(methylamino)-1-oxobutan-2-yl)-3-phenyl-5,6,7,8-tetrahydroimidazo[1,5-a]pyrazine-1-carboxamide] had a pEC50 of less than 5.00. Compound `CNC(=O)[C@@H](NC(=O)c1nc(-c2ccccc2)n2c1CN(S(=O)(=O)c1ccc(C(F)(F)F)cc1)CC2)C(C)(C)C` [Compound 107, (S)-N-(3,3-dimethyl-1-(methylamino)-1-oxobutan-2-yl)-3-phenyl-7-(4-(trifluoromethyl)phenylsulfonyl)-5,6,7,8-tetrahydroimidazo[1,5-a]pyrazine-1-carboxamide] showed a pEC50 of less than 5.00. The same measure, in the same setting: for `CNC(=O)[C@@H](NC(=O)c1nc(-c2ccsc2)n2c1CN(S(=O)(=O)c1ccc(F)cc1)CC2)C(C)(C)C` [Compound 109, (S)-N-(3,3-dimethyl-1-(methylamino)-1-oxobutan-2-yl)-7-(4-fluorophenylsulfonyl)-3-(thiophen-3-yl)-5,6,7,8-tetrahydroimidazo[1,5-a]pyrazine-1-carboxamide] the value was less than 5.00; for `CNC(=O)[C@@H](NC(=O)c1nc(-c2csc3ccccc23)n2c1CNCC2)C(C)(C)C` [Compound 20, (S)-3-(benzo[b]thiophen-3-yl)-N-(3,3-dimethyl-1-(methylamino)-1-oxobutan-2-yl)-5,6,7,8-tetrahydroimidazo[1,5-a]pyrazine-1-carboxamide], less than 5.00.

The compound `CNC(=O)[C@@H](NC(=O)c1nc(-c2ccsc2)n2c1CN(CC1CC1)CC2)C(C)(C)C` [Compound 74, (S)-7-(cyclopropylmethyl)-N-(3,3-dimethyl-1-(methylamino)-1-oxobutan-2-yl)-3-(thiophen-3-yl)-5,6,7,8-tetrahydroimidazo[1,5-a]pyrazine-1-carboxamide] gave a pEC50 of less than 5.00. The same measure, in the same setting: in the case of `CNC(=O)[C@@H](NC(=O)c1nc(Br)n2c1CN(C)CC2)C(C)(C)C` [Compound 203, (S)-3-bromo-N-(3,3-dimethyl-1-(methylamino)-1-oxobutan-2-yl)-7-methyl-5,6,7,8-tetrahydroimidazo[1,5-a]pyrazine-1-carboxamide] it was less than 5.00. On the same count and under the same terms, for `CNC(=O)[C@@H](NC(=O)c1nc(-c2ccsc2)n2c1CN(C)CC2)C(C)(C)C` [Compound 73, (S)-N-(3,3-dimethyl-1-(methylamino)-1-oxobutan-2-yl)-7-methyl-3-(thiophen-3-yl)-5,6,7,8-tetrahydroimidazo[1,5-a]pyrazine-1-carboxamide] the value was less than 5.00. A word on the EC50: it is the midpoint of the concentration-response curve. Regarding `CC(C)(CO)CNC(=O)c1nc(-c2ccccc2)n2c1CN(CC1CC1)CC2` [Compound 83, 7-(cyclopropylmethyl)-N-(3-hydroxy-2,2-dimethylpropyl)-3-phenyl-5,6,7,8-tetrahydroimidazo[1,5-a]pyrazine-1-carboxamide], the EC50 is greater than 10000 nM. In turn, `CNC(=O)[C@@H](NC(=O)c1nc(Br)n2c1CN(C)CCC2)C(C)(C)C` [Compound 324, (S)-3-bromo-N-(3,3-dimethyl-1-(methylamino)-1-oxobutan-2-yl)-8-methyl-6,7,8,9-tetrahydro-5H-imidazo[1,5-a][1,4]diazepine-1-carboxamide] showed a pEC50 of less than 5.00. For `CNC(=O)[C@H](C)NC(=O)c1nc(-c2ccccc2)n2c1CN(C)CC2` [Compound 78, (S)-7-methyl-N-(1-(methylamino)-1-oxopropan-2-yl)-3-phenyl-5,6,7,8-tetrahydroimidazo[1,5-a]pyrazine-1-carboxamide], the EC50 was greater than 10000 nM. Consider `CNC(=O)[C@@H](NC(=O)c1nc(-c2ccccc2)n2c1C[N+](C)(C)CC2)C(C)(C)C` [Compound 311, (S)-1-(3,3-dimethyl-1-(methylamino)-1-oxobutan-2-ylcarbamoyl)-7,7-dimethyl-3-phenyl-5,6,7,8-tetrahydroimidazo[1,5-a]pyrazin-7-ium iodide], for which the pEC50 was less than 5.00.

Values taken from patent US7517874B2 (priority 2007, dated 2009).
